Source: patent US4663340A, “Alpha-adrenoreceptor agonistic 2-[(2-cyclopropyl-5-methyl- or 2-cyclopropyl-5-chlorophenoxy)methyl]-2-imidazolines” (priority 1984, dated 1987)
Entries after “also recorded” stand apart in the source; their conditions may differ.

Tests used:
[1] = system: postsynaptic α1-adrenoceptor; test: Vasoconstrictor (hypertensive) dose-response in anaesthetized pithed rat, i.v.; format: in vivo, Wistar rat; conditions: for Relative power towards Cirazoline: Table I; for Relative power towards Cirazoline / ED50 / potency relative to Cirazoline / potency relative to Fenoxazoline: pithed rat; for ED50 (before antagonists): Table II, before administration of antagonists; for ED50: dose of base inducing 50% of maximal response
Excerpt: (§1) (1) The vaso-constrictor properties and potency of the compounds (I) object of the present invention have been investigated and quantified in the anaesthetized pithed rat by determination of their dose-[…] response curves after intravenous administration, according to the technique described by Shipley and Tilden (Proceedings of Society of Experimental Biology, 1947, 64, pages 453-455). This technique allows assessment of the postsynaptic α-adrenoceptor agonist properties of a drug. […] For each of these drugs, log of cumulative doses-hypertensive response curves after intravenous administration have been drawn in groups of eight Wistar rats, anaesthetized, pithed, bilaterally vagotomized, atropinized and treated with d-tribocurarine. ED50 s (doses in mg/kg of the base inducing 50% of the maximal response) were then calculated for each drug and compared to those of the reference compounds.
Table I reports the values of these ED50 s. It appears from this table that compounds ND 83201 and ND 83204 are the most powerful vaso-constrictor agents, their potency being about 1.75 times that of Cirazoline and three times that of Fenoxazoline.

[2] = system: postsynaptic α1-adrenoceptor; test: Vasoconstrictor effect in pithed rat after specific postsynaptic α1-adrenoceptor antagonist prazosine; format: in vivo, Wistar rat; conditions: for ED50 after prazosine: I.V.
Excerpt: as §1
(§2) For each of the three drugs log of cumulative doses-hypertensive response curves after intravenous administration have been drawn and their ED50 s (in μg per kg) were calculated before and after administration of the antagonists in groups of 8 animals each.

[3] = system: postsynaptic α2-adrenoceptor; test: Vasoconstrictor effect in pithed rat after specific postsynaptic α2-adrenoceptor antagonist yohimbine; format: in vivo, Wistar rat; conditions: for ED50 after yohimbine: I.V.; for ED50 after yohimbine / antagonism of vasoconstrictor effect by yohimbine / ED50 after / ED50 before yohimbine: yohimbine 60 μg/kg/min./5 mins.; for postsynaptic α2-adrenoceptor agonist properties / antagonism of vasoconstrictor effect by yohimbine: in words
Excerpt: as §1, §2

α1-adrenoceptor = test: Vasoconstrictor effect in pithed rat after reserpine pre-treatment (direct action); format: in vivo, Wistar rat; conditions: except in very high doses
Excerpt: as §1
(a) ND 83201 is a directly acting α1 -adrenoceptor agonist.

[4] = system: presynaptic α2-adrenoceptor; test: Presynaptic α2-adrenoceptor agonist activity: reduction of induced submaximal tachycardia in pithed rat; format: in vivo, Wistar rat; conditions: for effect on induced submaximal tachycardia / presynaptic α2-adrenoceptor agonist activity: electrically stimulated spinal cord
[5] = Stability of aqueous solution (hydrolysis of the imidazoline cycle); format: physicochemical; conditions: 1 per mill aqueous solution, room temperature
[6] = system: postsynaptic α1-adrenoceptor; conditions: literature; cited from earlier work
[7] = system: presynaptic α2-adrenoceptor; test: Presynaptic α2-adrenoceptor antagonist activity: restoration of tachycardia reduced by clonidine in pithed rat; conditions: for Heartbeat frequency under electric stimulation (supramaximal tachycardia): before clonidine and tested substance; for Heartbeat frequency under electric stimulation and after clonidine: clonidine 40 μg/kg, I.V., before tested substance; for restoration of submaximal tachycardia / presynaptic α2-adrenoceptor antagonist activity: in words, after clonidine 40 μg/kg I.V.
β-adrenoceptor = test: Vasoconstrictor ED50 after β-adrenoceptor antagonist pretreatment (β-adrenoceptor postsynaptic agonist activity); format: in vivo, Wistar rat; conditions: propranold 150 μg/kg/min/5 min
Excerpt: (d) ND 83201 has no β-adrenoceptor postsynaptic agonist activity.

Solubility in water = format: physicochemical; conditions: hydrochloride

SMILES	Relative power towards Cirazoline [1]	ED50 (before antagonists) [1] [µg/kg]	ED50 [1] [µg/kg]	ED50 after prazosine ([2]; prazosine 20 μg/kg/min./5 min.) [µg/kg]	ED50 after / ED50 before prazosine ([2]; prazosine 20 μg/kg/min./5 min.)	ED50 after yohimbine [3] [µg/kg]	antagonism of vasoconstrictor effect by yohimbine [3]	ED50 after / ED50 before yohimbine [3]	effect of reserpine pre-treatment on vasoconstrictor effects (α1-adrenoceptor)	effect on induced submaximal tachycardia / presynaptic α2-adrenoceptor agonist activity [4]	Heartbeat frequency under electric stimulation (supramaximal tachycardia) [7]	Heartbeat frequency under electric stimulation and after clonidine [7]	restoration of submaximal tachycardia / presynaptic α2-adrenoceptor antagonist activity [7]	further results
c1ccc(C2CC2)c(OCC2=NCCN2)c1 [Cirazoline, (2'-cyclopropyl)-2-phenyloxymethyl-Δ2-imidazoline]	1	1.105 ± 0.132	1.105 ± 0.132	8.568 ± 0.721	7.75	1.180 ± 0.108	almost not antagonized by yohimbine	1.05	not, except in very high doses, modified	completey devoid of any presynaptic α2 -adrenoceptor agonist activity and no	452.1 ± 10.5	395.7 ± 14.1	neither and no effect and no	nature of agonist effect (postsynaptic α1-adrenoceptor) ([2]; in words): specific and direct postsynaptic α1 -adrenoceptor agonist effects; postsynaptic α2-adrenoceptor agonist properties [3]: no postsynaptic α2-adrenoceptor agonist; appearance of hydrolysis product (amino-amide (V)) in aqueous solution [5]: after a few days the appearance of the cleaving product by hydrolysis of the imidazoline cycle; known vasoconstrictor / postsynaptic α1-adrenoceptor agonist activity [6]: the most powerful and specific postsynaptic α1-adrenoceptor agonist known up to now; also recorded: powerful nasal vasoconstrictor
Cc1ccc(C2CC2)c(OCC2=NCCN2)c1 [ND 83201, (5'-methyl-2'-cyclopropyl)-2-phenyloxymethyl-Δ2-imidazoline]	1.75	0.630 ± 0.060	0.630 ± 0.060	7.284 ± 0.974	11.56	0.805 ± 0.076	almost not antagonized by yohimbine	1.25	not, except in very high doses, modified	completey devoid of any presynaptic α2 -adrenoceptor agonist activity and no	448.7 ± 7.7	391.2 ± 5.9	no presynaptic α2 -adrenoceptor antagonist activity and no effect and no	potency relative to Cirazoline [1]: about 1.75 times; potency relative to Fenoxazoline [1]: three; nature of agonist effect (postsynaptic α1-adrenoceptor) ([2]; in words): specific and direct postsynaptic α1 -adrenoceptor agonist effects; antagonism of vasoconstrictor effect by prazosine ([2]; in words, prazosine 20 μg/kg/min./5 min.): strongly antagonized by prazosine and even slightly more than those of Cirazoline and Fenoxazoline; postsynaptic α2-adrenoceptor agonist properties [3]: no postsynaptic α2-adrenoceptor agonist; effect on induced submaximal tachycardia / presynaptic α2-adrenoceptor agonist activity ([4]; listed as ND 83 201): no presynaptic α2 -adrenoceptor agonist activity; ED50 change after β-adrenoceptor antagonist / β-adrenoceptor postsynaptic agonist activity (β-adrenoceptor): not modified; solubility in water (Solubility in water): not very soluble in water
Clc1ccc(C2CC2)c(OCC2=NCCN2)c1 [ND 83 204, (5'-chloro-2'-cyclopropyl)-2-phenoxymethyl-Δ2-imidazoline]	1.72	–	0.644 ± 0.050	–	–	–	–	–	–	–	–	–	–	potency relative to Cirazoline [1]: about 1.75 times; potency relative to Fenoxazoline [1]: three; appearance of hydrolysis product (amino-amide (V)) in aqueous solution [5]: even after one month, no trace of hydrolysis is yet detectable; solubility in water (Solubility in water): not very soluble in water
CC(C)c1ccccc1OCC1=NCCN1 [Fenoxazoline]	0.62	1.790 ± 0.147	1.790 ± 0.147	16.205 ± 1.240	9.05	1.804 ± 0.237	almost not antagonized by yohimbine	1.01	not, except in very high doses, modified	–	–	–	–	known vasoconstrictor / postsynaptic α1-adrenoceptor agonist activity [6]: postsynaptic α1 -adrenoceptor agonist
Brc1ccc(C2CC2)c(OCC2=NCCN2)c1 [ND 83 202, (5'-bromo-2'-cyclopropyl)-2-phenoxymethyl-Δ2-imidazoline]	0.25	–	4.422 ± 0.329	–	–	–	–	–	–	–	–	–	–	–
Clc1cccc(Cl)c1N=C1NCCN1 [clonidine]	–	–	–	–	–	–	–	–	–	reduced the submaximal tachycardia	–	–	–	antagonism of clonidine effect by yohimbine ([4]; submaximal tachycardia): effect antagonized by yohimbine
CCCCCc1ccc(C2CC2)c(OCC2=NCCN2)c1 [ND 83 203, (5'-n-pentyl-2'-cyclopropyl)-2-phenyloxymethyl-Δ2-imidazoline]	0.015	–	74.182 ± 6.667	–	–	–	–	–	–	–	–	–	–	–
Cc1ccc(N(CC2=NCCN2)c2cccc(O)c2)cc1 [Phentolamine]	–	–	–	–	–	–	–	–	–	–	455.6 ± 11.5	411.2 ± 8.9	resores sub-maximal tachycardia	–
